What was measured:
[1] = tested on: 76 mer-DNA aptamer (DNA, aptamer) CGTACGGAATTCGCTAGCCCCCCGGCAGGCCACGGCTTGGGTTGGTCCCACTGCGCGTGGATCCGAGCTCCACGTG; assay: competitive enzyme-linked aptamer assay (ELAA); details: sodium phosphate 10 mM, no added NaCl, no Mg2+; pH 7.2, RT; TC-HRP displaced; relative to TC = 100% at 50% B/B0; apparent
[2] = tested on: 57 mer-RNA aptamer (RNA, aptamer) GAGCCUAAAACAUACCAGAGAAAUCUGGAGAGGUGAAGAAUACGACCACCUAGGCUC; assay: competitive enzyme-linked aptamer assay (ELAA); details: sodium phosphate 10 mM, no added NaCl, no Mg2+; pH 7.2, RT; TC-HRP displaced; relative to TC = 100% at 50% B/B0; apparent

- Cross-reactivity [1]: 129.7%
- Cross-reactivity [2]: 35.3%
Structure (SMILES): CN(C)[C@@H]1C(=O)C(C(N)=O)=C(O)[C@@]2(O)C(=O)C3=C(O)c4c(O)cccc4[C@@](C)(O)[C@H]3[C@H](O)[C@@H]12

Source: article PMC3324139 (2012)
